Measured values from patent publication US7030133B2, “Inhibitors of formation of advanced glycation endproducts (AGEs)” (City of Hope, priority 1999, dated 2006).

Assays:
[1] = system: hemoglobin (HbAlC formation); test: Hemoglobin-δ-Gluconolactone (δ-Glu) assay (early stage glycation, HbAlC formation in whole blood); type: cell-based, human; settings: 1 millimole/L compound, 50 millimoles/L δ-Glu, whole blood from normal volunteers, 16 hours at 37° C.
Procedure: The δ-Glu assay is a specific method for investigation of inhibitors of the early stage of glycation. Evaluation of early glycation products (Amadori) formation on hemoglobin (HbAlC) is performed by incubating red blood cells with an oxidized form of glucose in the presence and the absence of the inhibitor compound followed by determination of HbAlC in the test versus the control (Rahbar and Nadler., 1999). […] By contrast, glucose requires weeks for an equivalent reaction to occur. We have used this finding to devise an assay method to measure early stage glycation of hemoglobin (Amadori product) and an assay to evaluate the ability of an inhibitor to inhibit HbAlC formation. Briefly, fresh blood was drawn in potassium-EDTA and prepared for incubation within 30 minutes of collection by mixing 200 μL of blood with 40 μL of either phosphate buffered-saline (PBS), pH 7.4, alone, PBS containing 50 millimoles/L δ-Glu (Sigma), or PBS containing 50 millimoles/L δ-Glu plus 1 millimole/L inhibitor. After incubation for 16 hours at 37° C., the percentage of glycated hemoglobin present was determined. The percentage of glycated Hb (HbAlC) was determined using a dedicated ion-exchange HPLC system (BIORAD DIAMAT). Blood samples were analyzed in triplicate. The % inhibition of HbAlC formation by the compound was calculated according to the following formula: ((B−C)/(B−A))×100 where A is HbAlC concentration in the baseline control tube not treated with δ-Glu, B is the HbAlC concentration in blood incubated with δ-Glu, C is the HbAlC content of the test tube treated both with δ-Glu and the inhibitor compound.
The amount of (HbAlC) formation using δ-Glu treated whole blood from normal volunteers using 1 millimole/L of the compounds was calculated. Various inhibitors (compounds LR103-LR115) show different levels of HbAlC depending on their inhibitory potencies.

[2] = system: BSA; test: BSA-Glucose assay (glucose-mediated development of fluorescence of BSA); type: biochemical; settings: BSA 50 mg/mL, 800 mM glucose, 7 days at 37° C., fluorescence 330/410 nm; compound concentration not stated
Procedure: This test is used to evaluate the ability of the inhibitors to inhibit glucose-mediated development of fluorescence of BSA (Ikeda et al., 1996). Triplicate samples of BSA (fraction V, essentially fatty acid free, low endotoxin) from Sigma 50 mg/mL and 800 mM glucose (144 mg/mL) in […] phosphate buffer pH 7.4 containing NaN3 0.2 g/L was incubated under aseptic conditions at 37° C. for 7 days in the presence or absence of various concentrations of the compounds. After 7 days of incubation each sample was examined for the development of specific fluorescence (excitation, 330 nm; emission, 410 nm). The % inhibition of AGE formation in the test sample versus control was calculated for each inhibitor compound. Aminoguanidine (50 mM) was used as a positive control.
This method assays for inhibitors of late glycation and AGE formation (post-Amadori).

[3] = N-Acetyl-Glycyl-Lysine Methyl Ester (G.K. peptide)-Ribose assay; type: biochemical; settings: 24 hours at 37° C.; for Percent Inhibition in the G.K.-Ribose Assay: 1 millimole/L compound, fluorescence 330/415 nm
Procedure: Evaluation of the late glycation products (AGEs), and AGE-inhibition by the new inhibitor compounds was tested by incubation of G.K. peptide in ribose in the presence or the absence of the agent, followed by determination of chromophores generated in the course of glycation and AGE formation through determination of their specific fluorescence. The Nagaraj et al. (1996) method used to evaluate the ability of the compounds of the present invention to inhibit the crosslinking of N-acetylglycyl-lysine methyl ester in the presence of ribose was as follows: Stock Solutions: • 0.5 M sodium phosphate buffer pH 7.4 containing NaN3 0.2 g/L • GK peptide (Sigma) 80 mg/mL in 0.5 M sodium phosphate buffer pH 7.4 • Ribose 800 mM (120 mg/mL) in 0.5 M phosphate buffer Triplicate samples of equal volumes (0.1 mL) of the 3 stock solutions were mixed together, filtered through a 0.2 micron filter (Coming) and incubated under aseptic conditions for 24 hours at 37° C. The inhibitor compounds were added to a final concentration of 1 millimole/L. At the end of the incubation period, samples were analyzed for their specific fluorescence (excitation, 330 nm; emission, 415 nm). The % inhibition by different concentrations of inhibitor was calculated as described above. Aminoguanidine was used at 50 mM as a positive control.

[4] = Inhibition of copper-catalyzed autooxidation of ascorbic acid (copper-chelating activity); type: physicochemical; settings: read-out: IC50, concentration that inhibited the rate of ascorbic acid oxidation by 50% (copper-chelating activity), FIGS. 3 and 4
Procedure: This assay was performed according to Price et al. (2001). The kinetics of oxidation of ascorbic acid (AA) at the rate of decrease in absorbance at 265 nm was measured. For studies with AGE inhibitors, the ascorbic acid was added to initiate the reaction. Aliquots were removed at 0, 15, 30, 45, and 60 minutes and transferred to autoinjector vials containing DPTA. Samples were analyzed by reverse phase HPLC, (Waters 2690 Millenium 32 Separator Module), equipped with an auto-injector using Xterra™ RP18 column (250×4.6 mm, 5 μm). Solvents and gradient were all used as described in Price et al. (2001). The concentration of each inhibitor compound that inhibited the rate of AA oxidation by 50% was calculated using Prism (Graph Pad-San Diego).

Molecule | Percent Inhibition of HbAlC formation in the δ-Glu Assay [1] | Percent Inhibition in the BSA-Glucose Assay [2] | Percent Inhibition in the G.K.-Ribose Assay [3] | Percent Inhibition in the G.K.-Ribose Assay (positive control) ([3]; Aminoguanidine 50 mM) | IC50 [4]
CC(C)(Oc1ccc(N(Cc2c(F)cccc2Cl)C(=O)Nc2ccc(Cl)c(Cl)c2)cc1)C(=O)O [LR105, 1[(2-fluoro-6-chlorobenzyl)-3-(3,4-dichlorophenyureido)]-4-phenoxyisobutyric acid] | 38.6% | 21.5% | 12% |  | 
O=C(O)COc1cccc2cccnc12 [LR111, 8-quinolinoxy acetic acid] | 38.6% | 21.6% | 9.7% |  | 
N=C(N)NN [AG, aminoguanidine, reference compound] |  |  |  | 67% | 
CC(C)(Oc1ccc(NC(=O)Nc2cc(Cl)cc(Cl)c2)cc1)C(=O)N[C@@H](Cc1ccccc1)C(=O)O [LR115, L, α-4-[(3,5-dichlorophenyureido)phenoxyisobutyrylamido]phenylalanine] | 47.7% | 22.3% | 0% |  | 
CC(C)(Oc1ccc(N(Cc2c(F)cccc2Cl)C(=O)Nc2c(F)cccc2Cl)cc1)C(=O)O [LR109, 1-[(2-fluoro-6-chlorobenzyl)-3-(2-fluoro-6-chlorophenylureido)]-4-phenoxyisobutyric acid] | 56.8% | 34.6% | 9.5% |  | 
CC(=O)N[C@@H](Cc1c[nH]cn1)C(=O)Oc1cccc2cccnc12 [LR113, L-8-quinolinolyl(acetylhistidine)] | 36.3% | 21.5% | 11% |  | 
CC(C)(Oc1ccc(N(Cc2ccc(Cl)cc2)C(=O)Nc2cc(Cl)cc(Cl)c2)cc1)C(=O)O [LR108, 1-[(4-chlorobenzyl)-3-(3,5-dichlorophenyureido)]-4-phenoxyisobutyric acid] | 2.0% | 31.1% | 19.7% |  | 
4,4′-bis [(methyleneoxyethyleneamino)phenoxy]isobutyric acid [LR112] | 43.2% | 44.7% | 21% |  | 
CC(C)(Oc1ccc(NCc2ccc(Cl)cc2)cc1)C(=O)O [LR106, 4-(4-chlorobenzylaminophenoxyisobutyric)acid] | 40.9% | 14.4% | 10.5% |  | 
CC(C)(Oc1ccc(NC(=O)Nc2ccc(F)c(Cl)c2)cc1)C(=O)Nc1ccccc1C(=O)O [LR104, 4-(4-fluoro-3-chlorophenylurido)phenoxyisobutyrylamidophenyl-2-carboxylic acid] | 47.7% | 18.4% | 0% |  | ~100 µM
CC(C)(Oc1ccc(NC(=O)Nc2ccc(NC(=O)Nc3ccc(OC(C)(C)C(=O)O)cc3)c(Cl)c2)cc1)C(=O)O [LR107, 2-chlorobenzene-1,4-bis(4-ureidophenoxyisobutyric acid)] | 43.2% | 28.7% | 19.5% |  | 
CC(C)(Oc1ccc(N(Cc2ccc(Cl)cc2)C(=O)Nc2ccc(Cl)c(Cl)c2)cc1)C(=O)O [LR103, 1-[(4-chlorobenzyl)-3-(3,4-dichlorophenylureido)]-4-phenoxyisobutyric acid] | 43.2% | 4% | 14% |  | ~75 µM
CC(C)(Oc1ccc(NC(=O)c2c3c(nc4ccccc24)CCCC3)cc1)C(=O)O [LR110, 4-(1,2,3,4-tetrahydroacridine-9-carboxamidophenoxyisobutyric)acid] | 38.6% | 28.5% | 11% |  | 
4-[(3,5-dichlorophenyureido)phenoxyisobutyrylamido]-2-hydroxybenzene-4-carboxylic acid [LR114] | 45.4% | 22.7% | 7.2% |  | 
